# Results as given in patent US6358885B1, “Substituted phenylheterocyclic herbicides” (Mississippi State University, priority 1992, dated 2002).
# Legend:
# barnyardgrass = test: Test B preemergence/postemergence greenhouse plant response rating 0 to 10; type: in vivo, Echinochloa crus-galli; settings: 0 to 10 scale
# Method in brief: (§1)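 Test chemicals, dissolved in a non-phytotoxic solvent, were applied to soil at planting and, at the same time, over foliage of seedlings at the one to four leaf stage.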
# crabgrass = test: Test C preemergence/postemergence greenhouse plant response rating 0 to 100; type: in vivo, Digitaria sanguinalis; settings: for Plant response rating, Crabgrass: 125 g/ha, 0 to 100 scale
# Method in brief: (§2)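 Compounds in non-phytotoxic solvent went onto sandy loam before emergence (seeded one day earlier) or onto plants at the one-to-four leaf stage. Duck salad was treated via flood water (~2.5 cm, maintained) over silt loam.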
# cotton = test: Test B preemergence/postemergence greenhouse plant response rating 0 to 10; type: in vivo, Gossypium hirsutum; settings: 0 to 10 scale
# Method in brief: as §1
# velvetleaf = test: as above; type: in vivo, Abutilon theophrasti; settings: 0 to 10 scale
# Method in brief: as §1
# giant foxtail = test: Test C preemergence/postemergence greenhouse plant response rating 0 to 100; type: in vivo, Setaria faberii; settings: for Plant response rating, Giant foxtail: 125 g/ha, 0 to 100 scale
# Method in brief: as §2
# wheat [1] = test: Test B preemergence/postemergence greenhouse plant response rating 0 to 10; type: in vivo, Triticum aestivum; settings: 0 to 10 scale
# Method in brief: as §1
# morningglory = test: as above; type: in vivo, Ipomoea hederacea; settings: 0 to 10 scale
# Method in brief: as §1
# rape = test: Test C preemergence/postemergence greenhouse plant response rating 0 to 100; type: in vivo, Brassica napus; settings: for Plant response rating, Rape: 125 g/ha, 0 to 100 scale
# Method in brief: as §2
# wheat [2] = test: as above; type: in vivo, Triticum aestivum; settings: for Plant response rating, Wheat: 125 g/ha, 0 to 100 scale
# Method in brief: as §2
# speedwell = test: as above; type: in vivo, Veronica persica; settings: for Plant response rating Speedwell: 125 g/ha, 0 to 100 scale
# Method in brief: as §2
# wild oat = test: as above; type: in vivo, Avena fatua; settings: for Plant response rating, Wild oat: 125 g/ha, 0 to 100 scale
# Method in brief: as §2
# bedstraw = test: as above; type: in vivo, Galium aparine; settings: for Plant response rating, Bedstraw: 125 g/ha, 0 to 100 scale
# Method in brief: as §2
# blackgrass = test: as above; type: in vivo, Alopecurus myosuroides; settings: for Plant response rating, Blackgrass: 125 g/ha, 0 to 100 scale
# Method in brief: as §2
compound,measurement,setting,value
Fc1cc(Cl)ccc1-c1nn2c(c1Br)CCCC2 [Compound 52],"Plant response rating, Barnyardgrass","barnyardgrass; POSTEMERGENCE, Rate 50 g/ha",9
same,"Plant response rating, Barnyardgrass","barnyardgrass; POSTEMERGENCE, Rate 200 g/ha",9
same,"Plant response rating, Barnyardgrass","barnyardgrass; PREEMERGENCE, Rate 50 g/ha",5
same,"Plant response rating, Barnyardgrass","barnyardgrass; Rate 200 g/ha, PREEMERGENCE",9
same,"Plant response rating, Crabgrass",crabgrass; POSTEMERGENCE,70
same,"Plant response rating (0 to 100), Crabgrass","crabgrass; POSTEMERGENCE, Rate 2 g/ha",10
same,"Plant response rating, Crabgrass",crabgrass; PREEMERGENCE,80
same,"Plant response rating (0 to 100), Crabgrass","crabgrass; PREEMERGENCE, Rate 2 g/ha",0
same,"Plant response rating (0 to 100), Crabgrass","crabgrass; Rate 8 g/ha, POSTEMERGENCE",30
same,"Plant response rating (0 to 100), Crabgrass","crabgrass; Rate 8 g/ha, PREEMERGENCE",0
same,"Plant response rating (0 to 100), Crabgrass","crabgrass; Rate 31 g/ha, POSTEMERGENCE",40
same,"Plant response rating (0 to 100), Crabgrass","crabgrass; Rate 31 g/ha, PREEMERGENCE",10
same,"Plant response rating, Cotton","cotton; POSTEMERGENCE, Rate 50 g/ha",10
same,"Plant response rating, Cotton","cotton; POSTEMERGENCE, Rate 200 g/ha",10
same,"Plant response rating, Cotton","cotton; PREEMERGENCE, Rate 50 g/ha",0
same,"Plant response rating, Cotton","cotton; Rate 200 g/ha, PREEMERGENCE",3
same,"Plant response rating, Velvetleaf","velvetleaf; POSTEMERGENCE, Rate 50 g/ha",9
same,"Plant response rating, Velvetleaf","velvetleaf; PREEMERGENCE, Rate 50 g/ha",8
same,"Plant response rating, Velvetleaf","velvetleaf; Rate 200 g/ha, POSTEMERGENCE",10
same,"Plant response rating, Velvetleaf","velvetleaf; Rate 200 g/ha, PREEMERGENCE",10
same,"Plant response rating, Giant foxtail",giant foxtail; POSTEMERGENCE,85
same,"Plant response rating (0 to 100), Giant foxtail","giant foxtail; POSTEMERGENCE, Rate 2 g/ha",20
same,"Plant response rating, Giant foxtail",giant foxtail; PREEMERGENCE,90
same,"Plant response rating (0 to 100), Giant foxtail","giant foxtail; PREEMERGENCE, Rate 2 g/ha",0
same,"Plant response rating (0 to 100), Giant foxtail","giant foxtail; Rate 8 g/ha, POSTEMERGENCE",40
same,"Plant response rating (0 to 100), Giant foxtail","giant foxtail; Rate 8 g/ha, PREEMERGENCE",10
same,"Plant response rating (0 to 100), Giant foxtail","giant foxtail; Rate 31 g/ha, POSTEMERGENCE",50
same,"Plant response rating (0 to 100), Giant foxtail","giant foxtail; Rate 31 g/ha, PREEMERGENCE",30
same,"Plant response rating, Wheat","wheat [1]; POSTEMERGENCE, Rate 50 g/ha",4
same,"Plant response rating, Wheat","wheat [1]; PREEMERGENCE, Rate 50 g/ha",4
same,"Plant response rating, Wheat","wheat [1]; Rate 200 g/ha, POSTEMERGENCE",8
same,"Plant response rating, Wheat","wheat [1]; Rate 200 g/ha, PREEMERGENCE",7
same,"Plant response rating, Morningglory","morningglory; POSTEMERGENCE, Rate 50 g/ha",9
same,"Plant response rating, Morningglory","morningglory; PREEMERGENCE, Rate 50 g/ha",0
same,"Plant response rating, Morningglory","morningglory; Rate 200 g/ha, POSTEMERGENCE",9
same,"Plant response rating, Morningglory","morningglory; Rate 200 g/ha, PREEMERGENCE",2
same,"Plant response rating, Rape",rape; POSTEMERGENCE,100
same,"Plant response rating (0 to 100), Rape","rape; POSTEMERGENCE, Rate 2 g/ha",10
same,"Plant response rating, Rape",rape; PREEMERGENCE,60
same,"Plant response rating (0 to 100), Rape","rape; PREEMERGENCE, Rate 2 g/ha",0
same,"Plant response rating (0 to 100), Rape","rape; Rate 8 g/ha, POSTEMERGENCE",40
same,"Plant response rating (0 to 100), Rape","rape; Rate 8 g/ha, PREEMERGENCE",0
same,"Plant response rating (0 to 100), Rape","rape; Rate 31 g/ha, POSTEMERGENCE",70
same,"Plant response rating (0 to 100), Rape","rape; Rate 31 g/ha, PREEMERGENCE",10
same,"Plant response rating, Wheat",wheat [2]; POSTEMERGENCE,50
same,"Plant response rating (0 to 100), Wheat","wheat [2]; POSTEMERGENCE, Rate 2 g/ha",10
same,"Plant response rating, Wheat",wheat [2]; PREEMERGENCE,60
same,"Plant response rating (0 to 100), Wheat","wheat [2]; PREEMERGENCE, Rate 2 g/ha",0
same,"Plant response rating (0 to 100), Wheat","wheat [2]; Rate 8 g/ha, POSTEMERGENCE",20
same,"Plant response rating (0 to 100), Wheat","wheat [2]; Rate 8 g/ha, PREEMERGENCE",0
same,"Plant response rating (0 to 100), Wheat","wheat [2]; Rate 31 g/ha, POSTEMERGENCE",30
same,"Plant response rating (0 to 100), Wheat","wheat [2]; Rate 31 g/ha, PREEMERGENCE",0
same,Plant response rating Speedwell,speedwell; POSTEMERGENCE,100
same,Plant response rating Speedwell,speedwell; PREEMERGENCE,100
same,"Plant response rating (0 to 100), Speedwell","speedwell; PREEMERGENCE, Rate 2 g/ha",0
same,"Plant response rating (0 to 100), Speedwell","speedwell; Rate 8 g/ha, POSTEMERGENCE",30
same,"Plant response rating (0 to 100), Speedwell","speedwell; Rate 8 g/ha, PREEMERGENCE",0
same,"Plant response rating (0 to 100), Speedwell","speedwell; Rate 31 g/ha, POSTEMERGENCE",100
same,"Plant response rating (0 to 100), Speedwell","speedwell; Rate 31 g/ha, PREEMERGENCE",20
same,"Plant response rating, Wild oat",wild oat; POSTEMERGENCE,60
same,"Plant response rating (0 to 100), Wild oat","wild oat; POSTEMERGENCE, Rate 2 g/ha",10
same,"Plant response rating, Wild oat",wild oat; PREEMERGENCE,20
same,"Plant response rating (0 to 100), Wild oat","wild oat; PREEMERGENCE, Rate 2 g/ha",0
same,"Plant response rating (0 to 100), Wild oat","wild oat; Rate 8 g/ha, POSTEMERGENCE",20
same,"Plant response rating (0 to 100), Wild oat","wild oat; Rate 8 g/ha, PREEMERGENCE",0
same,"Plant response rating (0 to 100), Wild oat","wild oat; Rate 31 g/ha, POSTEMERGENCE",30
same,"Plant response rating (0 to 100), Wild oat","wild oat; Rate 31 g/ha, PREEMERGENCE",0
same,"Plant response rating, Bedstraw",bedstraw; POSTEMERGENCE,100
same,"Plant response rating (0 to 100), Bedstraw","bedstraw; POSTEMERGENCE, Rate 2 g/ha",50
same,"Plant response rating, Bedstraw",bedstraw; PREEMERGENCE,80
same,"Plant response rating (0 to 100), Bedstraw","bedstraw; PREEMERGENCE, Rate 2 g/ha",0
same,"Plant response rating (0 to 100), Bedstraw","bedstraw; Rate 8 g/ha, POSTEMERGENCE",70
same,"Plant response rating (0 to 100), Bedstraw","bedstraw; Rate 8 g/ha, PREEMERGENCE",0
same,"Plant response rating (0 to 100), Bedstraw","bedstraw; Rate 31 g/ha, POSTEMERGENCE",70
same,"Plant response rating (0 to 100), Bedstraw","bedstraw; Rate 31 g/ha, PREEMERGENCE",10
same,"Plant response rating, Blackgrass",blackgrass; POSTEMERGENCE,60
same,"Plant response rating (0 to 100), Blackgrass","blackgrass; POSTEMERGENCE, Rate 2 g/ha",10
same,"Plant response rating, Blackgrass",blackgrass; PREEMERGENCE,50
same,"Plant response rating (0 to 100), Blackgrass","blackgrass; PREEMERGENCE, Rate 2 g/ha",0
same,"Plant response rating (0 to 100), Blackgrass","blackgrass; Rate 8 g/ha, POSTEMERGENCE",20
same,"Plant response rating (0 to 100), Blackgrass","blackgrass; Rate 8 g/ha, PREEMERGENCE",0
same,"Plant response rating (0 to 100), Blackgrass","blackgrass; Rate 31 g/ha, POSTEMERGENCE",40
same,"Plant response rating (0 to 100), Blackgrass","blackgrass; Rate 31 g/ha, PREEMERGENCE",0
